Test results taken from the METLIN SMRT retention time set (Domingo-Almenara et al. 2019).

assay: gradient 5% acetonitrile 3 min, to 50% in 2 min, to 85% in 15 min, held 3 min, 100 µL/min; conditions: column: Zorbax Extend-C18 2.1 x 50 mm; eluents: water / acetonitrile, 0.1% formic acid
Summary of the method: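 Each retention time is based on an adduct peak selected computationally and verified by manual inspection. Measurements used HPLC–quadrupole time-of-flight mass spectrometry in positive and negative ionization mode on mixtures of ~100 pure standards. Chromatography ran on a Zorbax Extend-C18 column (2.1 × 50 mm, 1.8 μm) at 100 μL/min with water and acetonitrile, each containing 0.1% formic acid, and dead and dwell volumes of 40 μL and 900 μL.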

SMILES | RP-LC retention time
O=C1CCCc2cc(S(=O)(=O)N3CCC(C(=O)NCc4ccco4)CC3)ccc2N1 | 678 s
COc1ccc(-c2nc3cc(C)ccn3c2NC(=O)c2cc(OC)c(OC)c(OC)c2)cc1 | 664 s
CCc1ccc(NC(=O)N2CCc3nc(-c4ccc(F)cc4)ncc3C2)cc1 | 1040 s
Cc1noc(CN2CCN(C3CCN(Cc4ccc(C(F)(F)F)cc4)C3)C2=O)n1 (configuration not stated) | 645 s
O=C(Nc1ncc(Cc2ccc(F)cc2)s1)c1ccc([N+](=O)[O-])cc1 | 937 s
CCCNC(=O)N(Cc1c(C)nn(-c2ccccc2)c1Oc1ccccc1OC)CC1CCCO1 (configuration not stated) | 917 s
CCCC(=O)Nc1nc(-c2ccccc2)c(C(=O)OCC)s1 | 973 s
CCCNS(=O)(=O)c1ccc(Cl)c(-c2nnc(-c3ccc(OC)cc3)o2)c1 | 1010 s
Cc1nnc2ccc(N3CCC(C)CC3)nn12 | 1000 s
CCn1cc(CCNC(=O)Nc2cccc(Cl)c2C)c2cccnc21 | 761 s
CCCCNC(=O)C(C)n1nc(C)c2nn(-c3ccccc3)c(C)c2c1=O (configuration not stated) | 864 s
CCOc1ccc(NC(=O)Cc2csc3nc(-c4ccccc4)cn23)cc1 | 815 s
Cc1nc(-c2ccccc2)nc2c1CCC(=O)N2Cc1cccnc1 | 673 s
COc1ccc2c(c1)C1(CCN(C(=O)Nc3ccccc3OC)C1)C(=O)N2 (configuration not stated) | 722 s
CC1=C(C(=O)OCCCc2ccccc2)C(c2cccs2)NC(=O)N1 (configuration not stated) | 882 s
CCc1ccc(N2C(=O)CN(S(=O)(=O)c3ccccc3)CC2(C)C(=O)NC2CCCC2)cc1 (configuration not stated) | 821 s
CC(COc1ccccc1)NC(C)C(O)c1ccc(O)cc1 (configuration not stated) | 686 s
CC(C)n1cnc2cc(CNC(=O)c3cccs3)ccc21 | 608 s
O=C(NCCN1CCN(Cc2ccccc2)CC1)c1cc(=O)n2c(nc3ccccc32)s1 | 649 s
CC(C)Cc1nc2nccc(-c3ccc(F)cc3)n2n1 | 886 s
Cn1nc(-c2nnc(-c3ccc(F)cc3)o2)c2c1CCN(S(=O)(=O)c1ccc(F)c(Cl)c1)C2 | 990 s
O=C(c1cccc(OC(F)(F)F)c1)N1C[C@@H]2C[C@H]1C[C@@H]2NS(=O)(=O)c1ccccc1 | 887 s
CCC(C)Nc1cc(C)nc2c(C)c(-c3ccc(Cl)cc3)nn12 (configuration not stated) | 807 s

SMILES | RP-LC retention time
O=S(=O)(NCc1ccccc1C(F)(F)F)c1c[nH]c2ncccc12 | 785 s
COc1ccc(-c2noc(CN3C(=O)COc4ccccc43)n2)cc1OC | 882 s
CNC(=O)c1cc2cc(Br)ccc2[nH]1 | 771 s
O=C(CSc1nnc2c3cc(-c4ccccc4)nn3ccn12)NCc1ccccc1Cl | 800 s
Cc1cc(N2CCN(C(=O)Cc3ccc(F)cc3)CC2)nc2nncn12 | 596 s
COc1ccc(NC(=O)CCc2c(C)nn(-c3cc(N4CCCC4)ncn3)c2C)c(OC)c1 | 801 s
CCNC(=O)c1cc2c(n(-c3ccc(C(C)C)cc3)c1=O)CCCC2=O | 905 s
Cc1cc(C)n(CCNC(=O)Cc2ccc(SC(C)C)cc2)n1 | 755 s
COC(=O)c1nnn(-c2ccc(C)c(C)c2)c1C(=O)OC | 916 s
Cc1ccc2c(c1)N(S(C)(=O)=O)CCC(C(=O)NC1CCCCCC1)O2 (configuration not stated) | 957 s
Cc1cccc(N2CCN(C(=O)c3cn(-c4ccc(NC(=O)C5CC5)cn4)cn3)CC2)c1C | 901 s
CC(C)CCN1CCC(C2CCN(C(=O)c3ccncc3)C2)CC1 (configuration not stated) | 556 s
O=S(=O)(c1ccccc1Br)N1CCC(c2noc(-c3ccccc3)n2)CC1 | 1160 s
O=C(Nc1ncc(SCCN2CCCC2)s1)[C@]1(c2ccc(S(=O)(=O)C3CC3)cc2)C[C@H]1C1CCCCC1 | 854 s
O=C(NCc1ccc2c(c1)OCO2)C1=CCN(Cc2ccccc2)CC1 | 607 s
Cc1ccccc1CNC(=O)c1csc(-c2cn(C)c3ncccc23)n1 | 1120 s
CC(C)n1cnc2cc(CNC(=O)c3c(F)cccc3Cl)ccc21 | 617 s
CCOc1ccc(CNC(=O)C2=C3CCCN3c3ccc(F)cc3S2(=O)=O)cc1 | 892 s
O=C(c1c(F)cccc1F)N(CC1CCOC1)C1CC1 (configuration not stated) | 769 s
O=C(C1CCOC1)N1CC(Oc2ccc(-c3nc(-c4ccccc4)no3)cc2)C1 (configuration not stated) | 952 s
CCCCC(=O)Nc1nc(-c2ccc3c(c2)NC(=O)C(C)O3)c(C)s1 (configuration not stated) | 871 s
Cc1cc(NC(=O)c2ncccn2)no1 | 577 s
Clc1ccc(-c2ccc(CNCc3ccc4c(c3)OCO4)o2)cc1 | 762 s

SMILES | RP-LC retention time
CC1CCC2(CC1)N=C(N1CCN(c3ncccn3)CC1)NC(=O)C2C#N (configuration not stated) | 649 s
CCCC(=O)N1CC(=O)Nc2ccc(Br)cc2C1c1ccccc1 (configuration not stated) | 892 s
Cc1ccc(NC(=O)c2c(C)sc3ncnc(N4CCCC(C)C4)c23)cc1F (configuration not stated) | 1290 s
Cc1nc2cc3c(cc2n1CC(=O)NCCc1ccc(F)cc1)OCCO3 | 646 s
CCc1sc(NC(=O)C2CCCCC2)nc1-c1ccccc1 | 1200 s
COc1ccc(C)cc1NC(=O)[C@@H]1[C@H](c2cc(OC)c(OC)c(OC)c2)c2cc3c(cc2[C@H](O)[C@H]1CO)OCO3 | 795 s
Cc1ccc(CNC(=O)C(C)n2nc(C)c3nn(-c4ccccc4)c(-n4cccc4)c3c2=O)o1 (configuration not stated) | 987 s
Cc1cccc(N2CCN(c3ccc4nnc(CCc5nc(-c6ccc(F)cc6)no5)n4n3)CC2)c1 | 1130 s
CCn1ccc(C(=O)N2CCCn3nc(-c4cccs4)cc3C2)n1 | 748 s
CCn1c(C2CCCN(C(=O)NCC(C)C)C2)nn(C)c1=O (configuration not stated) | 628 s
Cc1c(Cl)cccc1NC(=O)C1CCN(S(=O)(=O)c2ccc3c(c2)NC(=O)CO3)CC1 | 778 s
COc1ccc(OC)c(CNC(=O)c2ccc3[nH]c4c(c3c2)CN(C(C)=O)CC4)c1 | 680 s
Cc1ccc(NC(=O)N(C)CCc2noc(COc3ccccc3F)n2)cc1F | 943 s
O=C([C@@H]1C[C@H](F)CN1S(=O)(=O)c1ccccc1F)N1CCCCC1 | 743 s
Cc1cccc(N2CCN(c3ccc4cc(S(=O)(=O)N5CCCC5)ccc4n3)CC2)c1C | 1150 s
Cc1cccc(-n2cc(C(=O)OCC(=O)OC(C)C)c3ccccc3c2=O)c1 | 1130 s
CCCCOc1ccc(C(=O)Nc2cccc(C)n2)cc1 | 840 s
CC1CCN(S(=O)(=O)c2ccc3nn(Cc4cccc(F)c4)c(=O)n3c2)CC1 | 781 s
CCN1CN=C(Nc2nc(C)c3cc(OC)ccc3n2)NC1 | 622 s
Cc1ccc(-c2nc(CCN(C)C(=O)NCc3ccccc3)no2)cc1 | 905 s
O=C(C1CCN(S(=O)(=O)N2CCOCC2)CC1)N1CCCC(c2nc(C3CCOCC3)no2)C1 (configuration not stated) | 700 s
